Tests used:
Format in all cases: functional
Conditions in all cases: HCT-116, 72 h, time 3 day
HCT-116 [1] = experiment: Antiproliferative activity against human HCT-116 cells assessed as cell growth inhibition at 0.4 uM after 3 days by ATPlite assay relative to control
HCT-116 [2] = experiment: Antiproliferative activity against human HCT-116 cells assessed as cell growth inhibition at 10 uM after 3 days by ATPlite assay relative to control
HCT-116 [3] = experiment: Antiproliferative activity against human HCT-116 cells assessed as cell growth inhibition at 20 uM after 3 days by ATPlite assay relative to control
HCT-116 [4] = experiment: Antiproliferative activity against human HCT-116 cells assessed as cell growth inhibition at 1 uM after 3 days by ATPlite assay relative to control

Row | SMILES | inhibition at 0.4 µM (HCT-116 [1]) [%] | inhibition at 10 µM (HCT-116 [2]) [%] | inhibition at 20 µM (HCT-116 [3]) [%] | inhibition at 1 µM (HCT-116 [4]) [%]
1 | COc1ccc(/C=C/C(=O)O[C@@H]2CC[C@@H]3CCC[C@H](CC(=O)O)N3[C@H]2C)cc1 | -6.1 | 62.3 | 80.2 | 0.9
2 | COc1ccc(C(=O)O[C@@H]2CC[C@@H]3CCC[C@H](CC(=O)O)N3[C@H]2C)cc1OC | -3.6 | -6.4 | -13.1 | -5.5
3 | COc1cccc2c1C(=O)c1c(O)c3c(c(O)c1C2=O)C[C@@](O)(C(=O)CO)C[C@@H]3O[C@H]1C[C@H](N)[C@H](O)[C@H](C)O1 [DOXORUBICIN] | 84.5 | 91.1 | 91.7 | 96.3
4 | COc1ccc(C(=O)O[C@@H]2CC[C@@H]3CCC[C@H](CC(=O)O)N3[C@H]2C)c(OC)c1 | -6.1 | -4.7 | -3.2 | -8
5 | C[C@H]1[C@H](OC(=O)c2ccccc2)CC[C@@H]2CCC[C@H](CC(=O)O)N21 | -12.8 | -10.2 | -6.2 | -4.3
6 | C[C@H]1[C@H](OC(=O)/C=C/c2ccccc2)CC[C@@H]2CCC[C@H](CC(=O)O)N21 | -3.6 | -4.2 | 0.7 | -7.8
